According to PMC4942781, “A sodium channel inhibitor ISTX-I with a novel structure provides a new hint at the evolutionary link between two toxin folds” (Scientific Reports, 2016):
“Also recorded” adds a separate entry of the source. Bridge positions count the residues as written; N and C are the ends. Ends that are not written are not given here.

Key:
hNav1.2 = assay: Whole-cell patch clamp, hNav1.2 in HEK293T cells; type: cell-based, human; details: 10 μM ISTX-I; 50 ms step to -10 mV from -80 mV
Description: (§1) HEK293T (human embryonic kidney) cells were grown in DMEM containing 10% heat-inactivated FBS at 37 °C in a 5% CO2 incubator. The cDNA genes encoding human (h)Nav1.1, (h)Nav1.2, (h)Nav1.3, (h)Nav1.4, (h)Nav1.5, (h)Nav1.6 and (h)Nav1.7 were transiently transfected into HEK293T cells for electrophysiology using Lipofectamine-2000 (Invitrogen) in serum-reduced medium (Opti-MEM, Invitrogen) following the manufacturer’s instructions. The auxiliary subunits hβ1 and enhanced green florescent protein plasmids were cotransfected into HEK293T cells to increase the current density and efficiently select cells with green florescent protein for whole-cell patch-clamp recordings. After 12 h, the HEK293T cells were used for electrophysiological analysis.
(§2) DRG neurons with a large diameter (>[…]) and those with a relatively small diameter (<[…]) were chosen by measuring TTX-s and TTX-r currents, respectively. […] Potassium, calcium, and sodium currents were recorded in experimental cells using whole-cell patch-clamp recordings at room temperature, which were performed with an HEK EPC10 patch-clamp amplifier. […] Experimental data were acquired and analyzed using the programs patch master and Sigmaplot 9.0 (Sigma, USA). […]
(§3) Currents were recorded from experimental cells using whole-cell patch clamptechnique at room temperature (22–25 °C). […]

hNav1.3 = assay: Whole-cell patch clamp, hNav1.3 in HEK293T cells; type: cell-based, human; details: 10 μM ISTX-I; 50 ms step to -10 mV from -80 mV
Description: as §1, §2, §3

hNav1.5 = assay: Whole-cell patch clamp, hNav1.5 in HEK293T cells; type: cell-based, human; details: 10 μM ISTX-I; 50 ms step to -10 mV from -80 mV
Description: as §1, §2, §3

hNav1.7 = target: T1, hNav1.7 (Homo sapiens, UniProt Q15858); assay: Whole-cell patch clamp, hNav1.7 in HEK293T cells; type: cell-based
T1 construct: expressed in transfected cells; host or cells: HEK293T cells, transient transfection (Lipofectamine-2000)
T1 sequence (Q15858 whole entry): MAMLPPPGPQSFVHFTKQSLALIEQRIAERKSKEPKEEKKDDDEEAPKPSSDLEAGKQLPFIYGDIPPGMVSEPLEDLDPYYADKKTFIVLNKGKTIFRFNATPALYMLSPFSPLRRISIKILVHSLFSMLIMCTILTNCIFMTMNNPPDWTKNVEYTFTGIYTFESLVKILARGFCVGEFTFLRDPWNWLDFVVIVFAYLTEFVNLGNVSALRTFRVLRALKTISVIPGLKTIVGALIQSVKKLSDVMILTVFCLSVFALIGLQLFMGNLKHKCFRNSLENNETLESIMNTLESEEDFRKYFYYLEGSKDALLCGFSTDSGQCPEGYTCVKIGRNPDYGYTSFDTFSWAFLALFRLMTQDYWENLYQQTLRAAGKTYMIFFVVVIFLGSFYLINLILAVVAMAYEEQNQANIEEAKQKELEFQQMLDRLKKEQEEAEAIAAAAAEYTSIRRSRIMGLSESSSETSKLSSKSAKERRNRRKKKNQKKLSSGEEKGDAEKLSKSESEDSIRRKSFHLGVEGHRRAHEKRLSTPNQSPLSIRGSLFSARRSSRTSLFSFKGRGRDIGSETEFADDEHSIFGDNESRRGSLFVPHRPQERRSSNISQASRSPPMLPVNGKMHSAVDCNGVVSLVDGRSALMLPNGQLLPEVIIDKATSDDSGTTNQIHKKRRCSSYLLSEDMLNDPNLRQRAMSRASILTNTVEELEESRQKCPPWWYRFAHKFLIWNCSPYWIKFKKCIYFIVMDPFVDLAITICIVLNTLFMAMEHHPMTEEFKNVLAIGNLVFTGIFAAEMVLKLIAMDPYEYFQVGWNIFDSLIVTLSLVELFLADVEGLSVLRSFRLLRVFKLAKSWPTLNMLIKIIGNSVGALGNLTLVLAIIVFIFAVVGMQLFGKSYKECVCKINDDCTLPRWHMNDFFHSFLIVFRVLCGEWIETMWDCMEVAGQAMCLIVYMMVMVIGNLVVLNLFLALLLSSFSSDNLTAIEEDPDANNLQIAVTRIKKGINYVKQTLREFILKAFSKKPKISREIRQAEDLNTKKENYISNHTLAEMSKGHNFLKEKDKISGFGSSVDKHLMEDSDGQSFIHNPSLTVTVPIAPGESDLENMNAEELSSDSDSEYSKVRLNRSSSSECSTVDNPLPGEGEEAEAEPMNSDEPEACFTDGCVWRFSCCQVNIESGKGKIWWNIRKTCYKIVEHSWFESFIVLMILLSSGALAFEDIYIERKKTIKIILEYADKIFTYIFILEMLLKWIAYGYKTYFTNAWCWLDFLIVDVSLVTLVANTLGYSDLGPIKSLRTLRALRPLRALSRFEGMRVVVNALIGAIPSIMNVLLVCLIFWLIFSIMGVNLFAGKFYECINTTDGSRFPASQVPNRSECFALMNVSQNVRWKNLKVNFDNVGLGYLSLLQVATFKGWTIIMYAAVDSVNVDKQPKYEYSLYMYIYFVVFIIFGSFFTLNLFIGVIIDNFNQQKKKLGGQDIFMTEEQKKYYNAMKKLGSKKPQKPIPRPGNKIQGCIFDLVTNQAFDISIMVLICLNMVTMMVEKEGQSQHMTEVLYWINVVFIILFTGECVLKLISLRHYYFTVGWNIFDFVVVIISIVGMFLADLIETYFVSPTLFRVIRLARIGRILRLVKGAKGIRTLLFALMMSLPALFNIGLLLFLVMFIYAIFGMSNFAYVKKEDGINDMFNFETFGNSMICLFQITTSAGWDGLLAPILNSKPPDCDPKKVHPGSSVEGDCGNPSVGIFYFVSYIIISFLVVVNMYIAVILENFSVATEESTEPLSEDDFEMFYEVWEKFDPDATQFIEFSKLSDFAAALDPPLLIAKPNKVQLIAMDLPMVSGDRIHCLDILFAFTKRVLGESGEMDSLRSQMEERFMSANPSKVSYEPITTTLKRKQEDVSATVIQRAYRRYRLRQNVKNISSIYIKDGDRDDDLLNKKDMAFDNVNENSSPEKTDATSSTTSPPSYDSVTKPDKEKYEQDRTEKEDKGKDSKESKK
T1 sequence (Q07699 19-218, further chain): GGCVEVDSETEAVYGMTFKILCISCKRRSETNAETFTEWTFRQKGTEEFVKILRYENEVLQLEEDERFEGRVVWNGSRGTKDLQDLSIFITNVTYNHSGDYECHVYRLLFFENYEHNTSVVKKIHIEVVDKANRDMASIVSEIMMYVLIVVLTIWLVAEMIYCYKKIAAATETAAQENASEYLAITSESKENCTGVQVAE
Description: Figure 4 Effects of ISTX-I expressed in HEK293 cells. Current traces were evoked with a 50ms step depolarization to −10 mV from a holding potential of −80 mV every 5s. […] (E) Steady-state inactivation of the hNav1.7 channel before (solid circles) and after (open circles) the application of 10 μM ISTX-I (n = 5).
The effects of ISTX-I on the activation and inactivation kinetics of hNav1.7 were also analyzed. The current-voltage relationships were determined for Nav1.7 channels using step depolarization ranging from −80 to +40 mV from a holding potential of −80 mV.
as §1
DRG neurons with a large diameter (>[…]) and those with a relatively small diameter (<[…]) were chosen by measuring TTX-s and TTX-r currents, respectively. Meanwhile, TTX (final concentration at 100 nM) was used to separate TTX-r sodium currents from TTX-s sodium currents. Suction pipettes (2.0–4.0 MΩ) were made of borosilicate glass capillary tubes with two-step pulling on a vertical micropipette puller (PC-10, Narishige). Potassium, calcium, and sodium currents were recorded in experimental cells using whole-cell patch-clamp recordings at room temperature, which were performed with an HEK EPC10 patch-clamp amplifier. The P/4 protocol was used to subtract linear capacitive and leakage currents. Experimental data were acquired and analyzed using the programs patch master and Sigmaplot 9.0 (Sigma, USA). All of the data points represent the mean ± SE (n = the number of separate experimental cells examined). Dose-response curves were fitted using the following Hill logistic equation: y = 1 − (1 − fmax)/[1 + ([Tx]/IC50)^n] in which n is an empirical Hill coefficient and fmax is the fraction of current resistant to inhibition at high toxin (Tx) concentrations.
Electrophysiological studies.
Currents were recorded from experimental cells using whole-cell patch clamptechnique at room temperature (22–25 °C). The patch pipettes were fabricated from borosilicate glass tubing using a two-stage vertical microelectrode puller (PC-10, Narishige, Japan). […]

[1] = 5 μM ISTX-I, step depolarization from −80 to +40 mV, holding −80 mV

LCSENGDCAADECCVDTVFEGDMVTRSCEKTTGNFTECPGLTPIA (disulfide 2-14, 8-28, 13-38) [ISTX-I]
effect on hNav1.2 (hNav1.2): no effect
effect on hNav1.3 (hNav1.3): no effect
effect on hNav1.5 (hNav1.5): no effect
effect on hNav1.7 channel currents (hNav1.7; 1 μM ISTX-I, 50 ms step to −10 mV from −80 mV every 5 s): significantly depressed; also recorded: Inhibition of hNav1.7
shift of conductance–voltage (G-V) curve (hNav1.7; [1]): no effect; also recorded: did not shift
shift of current-voltage (I-V) curve (hNav1.7; [1]): no effect; also recorded: did not shift
shift of steady-state inactivation curve (hNav1.7; 10 μM ISTX-I, hNav1.7, n = 5): approximately −10 mV
